Reference: ChEMBL document CHEMBL1201862, “PubChem BioAssay data set” (2004)
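All cell lines were grown in 96-well plates and treated with compound for 48 hours. GI50 marks 50% less growth.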 Active and inactive are the calls of the source. Cut-off read from the data, not from the text of the source: active = GI50 up to about 1.1 µM and inactive = higher.

Key:
Experiment in all cases: inhibition of tumour cell growth, NCI panel, 48 h
786-0 = tested on: 786-0
A498 = tested on: A498
ACHN = tested on: ACHN
CCRF-CEM = tested on: CCRF-CEM
COLO 205 = tested on: COLO 205
DU-145 = tested on: DU-145
HCC 2998 = tested on: HCC 2998
HCT-116 = tested on: HCT-116
HOP-62 = tested on: HOP-62
HT-29 = tested on: HT-29
Hs-578T = tested on: Hs-578T
K562 = tested on: K562
KM12 = tested on: KM12
MCF7 = tested on: MCF7
NCI-H460 = tested on: NCI-H460
SK-MEL-2 = tested on: SK-MEL-2
SK-MEL-5 = tested on: SK-MEL-5
SW-620 = tested on: SW-620
UACC-62 = tested on: UACC-62
SF-295 = tested on: SF-295

SMILES | GI50 (786-0) | GI50 (A498) | GI50 (ACHN) | GI50 (CCRF-CEM) | GI50 (COLO 205) | GI50 (DU-145) | GI50 (HCC 2998) | GI50 (HCT-116) | GI50 (HOP-62) | GI50 (HT-29) | GI50 (Hs-578T) | GI50 (K562) | GI50 (KM12) | GI50 (MCF7) | GI50 (NCI-H460) | GI50 (SK-MEL-2) | GI50 (SK-MEL-5) | GI50 (SW-620) | GI50 (UACC-62) | GI50 (SF-295)
COc1ccc2oc(=N)c(C(=O)Nc3ccccn3)cc2c1 | > 100 µM (inactive) | > 100 µM (inactive) | 76 µM (inactive) | > 100 µM (inactive) | > 100 µM (inactive) | > 100 µM (inactive) | > 100 µM (inactive) | > 100 µM (inactive) | > 100 µM (inactive) | > 100 µM (inactive) | > 100 µM (inactive) | > 100 µM (inactive) | > 100 µM (inactive) | 35.1 µM (inactive) | > 100 µM (inactive) | 23.2 µM (inactive) | > 100 µM (inactive) | > 100 µM (inactive) | 71.4 µM (inactive) | 
CC(NC1=NCCO1)c1ccco1 (stereo unspecified) | > 100 µM (inactive) | > 100 µM (inactive) | > 100 µM (inactive) | > 100 µM (inactive) | 79.8 µM (inactive) | > 100 µM (inactive) | > 100 µM (inactive) | > 100 µM (inactive) | > 100 µM (inactive) | 93.8 µM (inactive) | > 100 µM (inactive) | > 100 µM (inactive) | 20.3 µM (inactive) | > 100 µM (inactive) | > 100 µM (inactive) | 60.4 µM (inactive) | 86.9 µM (inactive) | > 100 µM (inactive) | > 100 µM (inactive) | > 100 µM (inactive)
CCOP(=O)(OCC)C(Cc1cn(S(=O)(=O)c2ccc(C)cc2)cn1)C(=O)O (stereo unspecified) | > 100 µM (inactive) | > 100 µM (inactive) | > 100 µM (inactive) | > 100 µM (inactive) | > 100 µM (inactive) | > 100 µM (inactive) | > 100 µM (inactive) | > 100 µM (inactive) | > 100 µM (inactive) | > 100 µM (inactive) | > 100 µM (inactive) | > 100 µM (inactive) | > 100 µM (inactive) | > 100 µM (inactive) | > 100 µM (inactive) | > 100 µM (inactive) | > 100 µM (inactive) | > 100 µM (inactive) | > 100 µM (inactive) | > 100 µM (inactive)
O=C1N(C2CCCCC2)C(=O)N1C1CCCCC1 | 0.362 µM (active) | 0.16 µM (active) | 0.0562 µM (active) | 0.04 µM (active) | 0.467 µM (active) | 0.126 µM (active) | 1.16 µM (inactive) | 0.113 µM (active) | 0.425 µM (active) | 0.701 µM (active) | 0.0409 µM (active) | 0.0875 µM (active) | 0.285 µM (active) | 0.723 µM (active) | 0.321 µM (active) | 1.49 µM (inactive) | 0.439 µM (active) | 1.95 µM (inactive) | 0.21 µM (active) | 0.29 µM (active)
C[C@H](NC(=O)C(Cc1ccccc1)(Cc1ccc(O)cn1)NC(=O)c1ccccc1)c1ccccc1 (stereo partly specified) | 16.7 µM (inactive) | 18.1 µM (inactive) | 18.9 µM (inactive) | 30.5 µM (inactive) | 19.1 µM (inactive) | 18.6 µM (inactive) | 16.5 µM (inactive) | 15.3 µM (inactive) | 17.9 µM (inactive) | 17.5 µM (inactive) | 16.7 µM (inactive) | 34 µM (inactive) | 19.8 µM (inactive) | 24.2 µM (inactive) |  | 14.2 µM (inactive) | 19.4 µM (inactive) | 22.5 µM (inactive) | 13.2 µM (inactive) | 14.6 µM (inactive)
C=CCOc1ccc(N)c([N+](=O)[O-])c1 | > 100 µM (inactive) | 33.3 µM (inactive) | > 100 µM (inactive) | > 100 µM (inactive) | > 100 µM (inactive) | > 100 µM (inactive) | > 100 µM (inactive) | > 100 µM (inactive) | > 100 µM (inactive) | > 100 µM (inactive) | > 100 µM (inactive) | > 100 µM (inactive) | > 100 µM (inactive) | > 100 µM (inactive) |  | > 100 µM (inactive) | > 100 µM (inactive) | > 100 µM (inactive) | > 100 µM (inactive) | > 100 µM (inactive)
CC(NNC(=O)c1ccncc1)c1ccccc1 (stereo unspecified) | > 100 µM (inactive) | > 100 µM (inactive) | > 100 µM (inactive) | > 100 µM (inactive) | > 100 µM (inactive) | > 100 µM (inactive) | > 100 µM (inactive) | > 100 µM (inactive) | > 100 µM (inactive) | > 100 µM (inactive) | > 100 µM (inactive) | > 100 µM (inactive) | > 100 µM (inactive) | > 100 µM (inactive) |  | > 100 µM (inactive) | > 100 µM (inactive) | > 100 µM (inactive) | > 100 µM (inactive) | > 100 µM (inactive)
